The record followed here is patent US7153822B2, “Compositions and methods for modulating connexin hemichannels” (Wyeth, priority 2002, dated 2006).

Square brackets hold non-standard residues; d marks the D form. Peptide text beside a SMILES is read from it. dHyp = O=C(O)[C@H]1C[C@H](O)CN1

The experiment concerns cultured primary cardiomyocytes. In words: stimulus-activation interval (conduction velocity) during glucose removal, patch clamp. Type of experiment: cell-based, rat. As to conditions: 10 nM, superfusion 20 min after 15 min without glucose. The method, then:
1. Cell culture: In short the hearts from 20 neonate rats (age 1–2 days) are excised aseptically. The ventricles are isolated and cut into 4–6 pieces, which are digested in several steps in a Hanks buffered saline with trypsin and DNAse. The cells are then centrifuged and resuspended in MEM with 5% FCS. To eliminate non-muscle cells the suspension is preplated in petri dishes for 30 minutes at 37° C. The cells in suspension are then seeded onto collagen coated coverslips. Seeding density will be adjusted to give confluent cultures.
2. Electrophysiology: The cover slips with confluent cardiomyocytes are mounted in an open chamber on the stage of an inverted microscope and superfused with Dulbeccos phosphate buffered saline (PBS) by gravity driven flow at 1 ml/min, 37° C. The solution (PBS) contain (in mM): Na+ 152, K+ 4.2, Cl− 141.5, PO43− 9.5, Ca2+ 0.9, Mg2+ 0.5, pH 7.4. Patch clamp pipettes are pulled from 1.5 mm glass capillaries (GC150F-15, Harvard Apparatus) on a Sutter Flaming-Brown P-87 microelectrode puller and fire polished to a resistance of 4–6 MW. […]
The cells were perfused with control solution with 0.1 g/l BSA until a stable baseline in the stimulus-activation interval (SAI) was established. […] Date are expressed as percent change relative to baseline prior to removal of glucose from the media.
On the technique in general: In patch-clamp work, channel activity is measured electrically.

In the case of `CC(=O)N[C@H](Cc1ccc(O)cc1)C(=O)N1CCC[C@@H]1C(=O)N1C[C@@H](O)C[C@@H]1C(=O)NCC(=O)N[C@H](C)C(=O)NCC(N)=O` [Compound 1, Ac-D-Tyr-D-Pro-D-4Hyp-Gly-D-Ala-Gly-NH2] (Ac-[dY][dP][dHyp]G[dA]G-NH2), the stimulus-activation interval result is on record as “decreased the stimulus-activation interval”.
